Consider 52 compounds from patent publication US8304447B2, “2-acylaminopropoanol-type glucosylceramide synthase inhibitors” (Genzyme Corporation, priority 2007, dated 2012).

The first test concerns GM3. The test can be described thus: GM3 Elisa assay. In kind it is cell-based. As to conditions: 48 h, Table 1; B16-FO cells, 2 days incubation; read-out: IC50_uM_Mean. The essentials:
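Murine B16-FO melanoma cells attached 6 h on collagen, then exposed to compounds for 2 days at 37 °C. After formaldehyde fixation, cell-surface GM3 (NeuAc) was detected by anti-GM3 IgM and peroxidase anti-mouse IgM with Quantablu fluorescence (Ex 325/Em 420).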
Consider `COc1cccc(OCCC(=O)N[C@H](CN2CCCC2)[C@H](O)c2ccc3c(c2)OCCO3)c1` [Compound 54, N-((1R,2R)-1-(2,3-dihydrobenzo[β][1,4]dioxin-6-yl)-1-hydroxy-3-(pyrrolidin-1-yl)propan-2-yl)-3-(3-methoxyphenoxy)propanamide], for which the IC50 is no more than 100 nM. Consider `CCc1ccc(OCCC(=O)N[C@H](CN2CCCC2)[C@H](O)c2ccc3c(c2)OCCO3)cc1` [Compound 188, N-((1R,2R)-1-(2,3-dihydrobenzo[b][1,4]dioxin-6-yl)-1-hydroxy-3-(pyrrolidin-1-yl)propan-2-yl)-3-(4-ethylphenoxy)propanamide (2R,3R)-2,3-dihydroxysuccinate], for which the IC50 is 100 to 1000 nM.

For the compound `COc1cccc(-c2ccc(CC(=O)N[C@H](CN3CCCC3)[C@H](O)c3ccc4c(c3)OCCO4)cc2)c1` [Compound 63, N-((1R,2R)-1-(2,3-dihydrobenzo[β][1,4]dioxin-6-yl)-1-hydroxy-3-(pyrrolidin-1-yl)propan-2-yl)-2-(3 methoxybiphenyl-4-yl)acetamide], the IC50 was no more than 100 nM.

Consider `O=C(CCCC(=O)c1ccccc1)N[C@H](CN1CCCC1)[C@H](O)c1ccc2c(c1)OCCO2` [Compound 113, N-((1R,2R)-1-(2,3-dihydrobenzo[β][1,4]dioxin-6-yl)-1-hydroxy-3-(pyrrolidin-1-yl)propan-2-yl)-5-oxo-5-phenylpentanamide], for which the IC50 lay in the range of 100 to 1000 nM.

With `O=C(Cc1cccc(C(F)(F)F)c1)N[C@H](CN1CCCC1)[C@H](O)c1ccc2c(c1)OCCO2` [Compound 51, N-((1R,2R)-1-(2,3-dihydrobenzo[β][1,4]dioxin-6-yl)-1-hydroxy-3-(pyrrolidin-1-yl)propan-2-yl)-2-(3-(trifluoromethyl)phenyl)acetamide], the IC50 is 100 to 1000 nM.

The same test, now with this note: 48 h, Table 2; B16-FO cells, 2 days incubation; read-out: IC50_uM_Mean.
`COc1ccc(C(=O)CCCCC(=O)N[C@H](CN2CCCC2)[C@H](O)c2ccc3c(c2)OCO3)cc1` [Compound 267, N-((1R,2R)-1-(benzo[δ][1,3]dioxol-5-yl)-1-hydroxy-3-(pyrrolidin-1-yl)propan-2-yl)-6-(4-methoxyphenyl)-6-oxohexanamide (2S,3S)-2,3-dihydroxysuccinate]: the IC50 was no more than 100 nM. Still for that read-out and setting: the value for `COc1ccc([C@@H](O)[C@@H](CN2CCCC2)NC(=O)CCCCCC(=O)c2ccc(OC(C)C)cc2)cc1` [Compound 271] was no more than 100 nM. Still for that read-out and setting: under `COc1ccc([C@@H](O)[C@@H](CN2CCCC2)NC(=O)Cc2ccc(C(F)(F)F)cc2)cc1` [Compound 251, N-((1R,2R)-1-hydroxy-1-(4-methoxyphenyl)-3-(pyrrolidin-1-yl)propan-2-yl)-2-(4-(trifluoromethyl)phenyl)acetamide] stands 100 to 1000 nM; under `COc1ccc([C@@H](O)[C@@H](CN2CCCC2)NC(=O)CCOc2ccc(C)cc2)cc1` [Compound 247, N-((1R,2R)-1-hydroxy-1-(4-methoxyphenyl)-3-(pyrrolidin-1-yl)propan-2-yl)-3-(p-tolyloxy)propanamide], no more than 100 nM; under `COc1ccc(CCCC(=O)N[C@H](CN2CCCC2)[C@H](O)c2ccc(OC)cc2)cc1` [Compound 263], 100 to 1000 nM. On the same count and under the same terms, under `COc1ccc(C(=O)CCCCC(=O)N[C@H](CN2CCCC2)[C@H](O)c2ccc(OC)cc2)cc1` [Compound 269] stands no more than 100 nM.

The same test, now with this note: Table 2; B16-FO cells, 2 days incubation; read-out: IC50_uM_Mean.
With `COc1ccc([C@@H](O)[C@@H](CN2CCCC2)NC(=O)OCc2ccccc2)cc1` [Compound 246], the IC50 fell in the range of 1000 to 3000 nM.

The test is the same for the next values; noted with them: Table 3 (IC 50 Values); B16-FO cells; read-out: IC50_uM_Mean.
`CCCOC1CN(C[C@@H](NC(=O)CCCCCC(=O)c2ccc(OC)cc2)[C@H](O)c2ccc3c(c2)OCCO3)C1` [Compound 604]: the IC50 lay within 3000 to 10000 nM.

On to `O=C(CCOc1ccc(F)cc1)N[C@H](CN1CC[C@@H](F)C1)[C@H](O)c1ccc2c(c1)OCCO2` [Compound 568], for which the IC50 is 100 to 1000 nM. Regarding `COc1ccc(C(=O)CCCCC(=O)N[C@H](CN2CCCC2)[C@H](O)c2ccc(C(F)(F)F)cc2)cc1` [Compound 491], the IC50 is 1000 to 3000 nM. Still for that read-out and setting: under `COc1ccc(C(=O)CCCCC(=O)N[C@H](CN2CCCC2)[C@H](O)c2ccc(OC)c(Cl)c2)cc1` [Compound 709] stands no more than 100 nM; under `O=C(N[C@H](CN1CCCC1)[C@H](O)c1ccc2c(c1)OC(F)(F)C(F)(F)O2)OCc1ccccc1` [Compound 399], 1000 to 3000 nM. On the same count and under the same terms, under `COc1ccc(C(=O)CCCCC(=O)N[C@H](CN2CCCC2)[C@H](O)c2ccc(OCC3CCC3)cc2)cc1` [Compound 421] stands no more than 100 nM; under `COc1ccc(C(=O)CCCCC(=O)N[C@H](CN2CCCC2)[C@H](O)c2ccc(OCCOc3c(C)cccc3C)cc2)cc1` [Compound 373], no more than 100 nM; under `COc1ccc(OCCC(=O)N[C@H](CN2CC[C@H](O)C2)[C@H](O)c2ccc(OCCCCF)cc2)cc1` [Compound 502], no more than 100 nM. On the same count and under the same terms, the value for `COCCc1ccc([C@@H](O)[C@@H](CN2CCCC2)NC(=O)CCOc2ccc(OC)cc2)cc1` [Compound 356] was 1000 to 3000 nM; that for `COc1ccc(OCCC(=O)N[C@H](CN2CCCC2)[C@H](O)c2ccc(OCc3ccccc3)cc2)cc1` [Compound 705] was no more than 100 nM. For the compound `COc1ccc(C(=O)CCCCCC(=O)N[C@H](CN2CCCC2)[C@H](O)c2ccc(Cl)s2)cc1` [Compound 358], the IC50 was no more than 100 nM.

On to `CCCCCCCC(=O)N[C@H](CN1CCCC1)[C@H](O)c1ccc(CCOC)cc1` [Compound 478], for which the IC50 was 100 to 1000 nM. Turning to `COc1ccc(C(=O)CCCC(=O)N[C@H](CN2CCCC2)[C@H](O)c2ccc(Cl)s2)cc1` [Compound 359], the IC50 lay within 100 to 1000 nM. For the compound `COc1ccc(OCCOc2ccc([C@@H](O)C(CN3CCCC3)NC(=O)CCCCC(=O)c3ccc(OC)cc3)cc2)cc1` (stereo partly shown) [Compound 416], the IC50 was no more than 100 nM. Same read-out and setting: under `CCCCCCCCCCCCCC(=O)N[C@H](CN(C)C(C)C)[C@H](O)c1ccc2c(c1)OCCO2` [Compound 684] stands 100 to 1000 nM; under `COc1ccc(C(=O)CCCCC(=O)N(CC2CCCC2)[C@H](CN2CCCC2)[C@H](O)c2ccc(O)cc2)cc1` [Compound 428], 3000 to 10000 nM. On to `O=C(CCCCCC(=O)c1ccc(F)cc1)N[C@H](CN1CC[C@H](O)C1)[C@H](O)c1ccc2c(c1)OCCO2` [Compound 653], for which the IC50 was no more than 100 nM.

In the case of `COc1ccc(C(=O)CCCCC(=O)N[C@H](CN2CC[C@H](O)C2)[C@H](O)c2ccc(OCCCCF)cc2)cc1` [Compound 495], the IC50 was no more than 100 nM. Same read-out and setting: under `COc1ccc(C(=O)CCCCCC(=O)N[C@H](CN2CC3CC3C2)[C@H](O)c2ccc3c(c2)OCCO3)cc1` (stereo partly shown) [Compound 537] stands no more than 100 nM; under `O=C(N[C@H](CN1CCCC1)[C@H](O)c1ccc2c(c1)OCCO2)C1CCC(C(F)(F)F)CC1` (stereo partly shown) [Compound 616], 3000 to 10000 nM; under `COc1ccc(C(=O)CCCC(=O)N[C@H](CN2CC[C@@H](F)C2)[C@H](O)c2ccc(OC(C)C)cc2)cc1` [Compound 444], 100 to 1000 nM. Same read-out and setting: the value for `O=C(CCCCC(=O)C1CCC(F)(F)CC1)N[C@H](CN1CC[C@@H](F)C1)[C@H](O)c1ccc(OCc2ccccc2)cc1` [Compound 573] was 100 to 1000 nM. As to `CCCCCCCCCCCCCCCC(=O)N[C@H](CN(C)Cc1ccccc1)[C@H](O)c1ccc2c(c1)OCCO2` [Compound 682], the IC50 was in the range of 3000 to 10000 nM. Still for that read-out and setting: the value for `O=C(CCC(=O)N[C@H](CN1CCCC1)[C@H](O)c1ccc2c(c1)OCCO2)NC1CCCCC1` [Compound 689] was 3000 to 10000 nM. Turning to `Cc1ccc([C@@H](O)[C@@H](CN2CCCC2)NC(=O)Cc2ccc(OC(F)(F)F)cc2)cc1F` [Compound 347], the IC50 lay within 100 to 1000 nM.

For the compound `O=C(CCCCCC(F)(F)C1CC1)N[C@H](CN1CCCC1)[C@H](O)c1ccc2c(c1)OCCO2` [Compound 630], the IC50 is 100 to 1000 nM. On the same count and under the same terms, under `O=C(CCCS(=O)(=O)C1CCCCC1)N[C@H](CN1CC[C@@H](F)C1)[C@H](O)c1ccc(OCc2ccccc2)cc1` [Compound 577] stands 100 to 1000 nM; under `O=C(CCCCCC1CCOCC1)N[C@H](CN1CCCC1)[C@H](O)c1ccc2c(c1)OCCO2` [Compound 559], 100 to 1000 nM. Turning to `COCCOc1ccc(C(=O)CCCCC(=O)N[C@H](CN2CCCC2)[C@H](O)c2ccc3c(c2)OCCO3)cc1` [Compound 450], the IC50 was no more than 100 nM.

Turning to `COc1ccc(C(=O)CCCCC(=O)N(Cc2cccnc2)[C@H](CN2CCCC2)[C@H](O)c2ccc(O)cc2)cc1` [Compound 425], the IC50 is 3000 to 10000 nM. With `COCCOc1ccc(C(=O)CCCC(=O)N[C@H](CN2CCCC2)[C@H](O)c2ccc3c(c2)OCCO3)cc1` [Compound 449], the IC50 was no more than 100 nM. On to `COc1ccc(C(=O)CCCCCC(=O)N[C@H](CN2CC(F)(F)C2)[C@H](O)c2ccc3c(c2)OCCO3)cc1` [Compound 618], for which the IC50 was 3000 to 10000 nM. For the compound `COc1ccc(C(=O)CCCCC(=O)N[C@H](CN2CCCC2)[C@H](O)c2ccccc2OC)cc1` [Compound 698], the IC50 was 100 to 1000 nM.

With `CCCCCCCC(=O)N[C@H](CN1CCCC1)[C@H](O)c1cc(OC)c(OC)c(OC)c1` [Compound 669], the IC50 is 3000 to 10000 nM. Turning to `CCCCCCCC(=O)N[C@H](CN1CCCC1)[C@H](O)c1sccc1C` [Compound 360], the IC50 is 100 to 1000 nM. Regarding `COc1ccc(C(=O)CCCCC(=O)N[C@H](CN2CCCC2)[C@H](O)c2ccc3c(c2)OC(F)(F)O3)cc1` [Compound 408], the IC50 is 1000 to 3000 nM. In the case of `O=C(CCCOc1ccc(F)cc1)N[C@H](CN1CCCC1)[C@H](O)c1ccc2c(c1)OCCO2` [Compound 566], the IC50 was no more than 100 nM. Still for that read-out and setting: under `CCCCCCOc1ccc([C@@H](O)[C@@H](CN2CC[C@H](O)C2)NC(=O)CCCOc2ccc(OC)cc2)cc1` [Compound 728] stands no more than 100 nM; under `CCCCCCOc1ccc([C@@H](O)[C@@H](CN2CCCC2)NC(=O)CCCOc2ccc(C(C)=O)cc2)cc1` [Compound 727], no more than 100 nM; under `CCCCCCCC(=O)N[C@H](CN1CC[C@@H](F)C1)[C@H](O)c1ccc2c(c1)OCCO2` [Compound 504], 100 to 1000 nM.
